Test results published in patent US7994185B2, “Benzene sulfonamide thiazole and oxazole compounds” (Glaxo Smith Kline LLC, priority 2008, dated 2011).
Structures can show the parent of a compound that is named as a salt. Where two headings read alike, the source gives them in different places.

Target: T1, BRAFV600E full-length (amino acids 2-766) (Homo sapiens, UniProt P15056, V600E)
T1 construct: His6-tagged BRAFV600E full-length (amino acids 2-766); His6; made in house; host or cells: baculovirus expression system (insect cells)
T1 sequence (P15056 2-766 V600E): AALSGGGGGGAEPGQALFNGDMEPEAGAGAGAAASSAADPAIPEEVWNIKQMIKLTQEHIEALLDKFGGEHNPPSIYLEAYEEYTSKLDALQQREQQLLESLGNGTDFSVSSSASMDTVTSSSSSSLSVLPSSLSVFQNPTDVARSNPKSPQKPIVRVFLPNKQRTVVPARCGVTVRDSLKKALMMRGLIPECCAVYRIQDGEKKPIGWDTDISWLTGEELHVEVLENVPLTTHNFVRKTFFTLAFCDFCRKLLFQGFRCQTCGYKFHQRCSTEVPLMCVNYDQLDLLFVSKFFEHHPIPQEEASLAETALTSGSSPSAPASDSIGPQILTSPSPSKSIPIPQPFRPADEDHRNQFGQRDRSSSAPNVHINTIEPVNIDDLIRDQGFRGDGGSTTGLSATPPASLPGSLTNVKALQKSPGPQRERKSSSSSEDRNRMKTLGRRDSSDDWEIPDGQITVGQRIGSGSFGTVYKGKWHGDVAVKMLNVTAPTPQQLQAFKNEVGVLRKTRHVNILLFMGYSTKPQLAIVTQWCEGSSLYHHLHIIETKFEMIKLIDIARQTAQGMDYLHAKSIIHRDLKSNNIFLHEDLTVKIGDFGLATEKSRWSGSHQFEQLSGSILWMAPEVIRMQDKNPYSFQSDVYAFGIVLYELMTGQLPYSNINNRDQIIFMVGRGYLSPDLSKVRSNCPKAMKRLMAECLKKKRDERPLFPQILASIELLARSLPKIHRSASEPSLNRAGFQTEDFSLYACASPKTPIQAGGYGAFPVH
Experiment: B-Raf Accelerated MEK ATPase assay (BRAMA)
Format: biochemical
Conditions: categorized
Experimental: Compounds of the present invention were tested for B-Raf protein serine kinase inhibitory activity in a B-Raf Accelerated MEK ATPase assay (BRAMA). […] The BRAMA assay is a high sensitivity assay which measures an intrinsic MEK-mediated ATP hydrolysis uncoupled from downstream ERK phosphorylation by coupling the formation of ADP to NADH oxidation through the enzymes pyruvate kinase and lactate dehydrogenase. When ADP production is initiated by addition of catalytic amounts of an activated Raf enzyme and non-phosphorylated MEK, one observes robust ADP production concomitant with Raf-mediated phosphorylation of MEK. The method is disclosed in: C. Rominger, M. Schaber, E. May. Assay for B-Raf Activity Based on Intrinsic MEK ATPase Activity.

[1] = B-Raf Activity, Table 1a, highest pIC50 for the one or more runs
[2] = B-Raf pIC50, Table 1b, later runs, average pIC50 for the one or more runs
[3] = Table 1b, later runs, average pIC50 for the one or more runs, read-out: B-Raf pIC50 (converted)
[4] = Table 1a, highest pIC50 for the one or more runs, read-out: B-Raf Activity

CC(C)c1nc(-c2cccc(NS(=O)(=O)c3c(F)cccc3F)c2)c(-c2ccnc(N)n2)s1 [Example 90, N-{3-[5-(2-Amino-4-pyrimidinyl)-2-(1-methylethyl)-1,3-thiazol-4-yl]phenyl}-2,6-difluorobenzenesulfonamide]
IC50 [1]: < 100 nM | IC50 [2]: 31.6 to 1000 nM

CC(C)c1nc(-c2cccc(NS(=O)(=O)c3c(F)cccc3F)c2)c(-c2ccnc(NCCS(C)(=O)=O)n2)s1 [Example 1, 2,6-Difluoro-N-{3-[2-(1-methylethyl)-5-(2-{[2-(methylsulfonyl)ethyl]amino}-4-pyrimidinyl)-1,3-thiazol-4-yl]phenyl}benzenesulfonamide]
IC50 [1]: < 100 nM | IC50 [2]: ≤ 3.16 nM

CCN(CC)CCNc1nccc(-c2sc(C3CCOCC3)nc2-c2cccc(NS(=O)(=O)c3ccoc3)c2F)n1 [Example 301, N-{3-[5-(2-{[2-(diethylamino)ethyl]amino}-4-pyrimidinyl)-2-(tetrahydro-2H-pyran-4-yl)-1,3-thiazol-4-yl]-2-fluorophenyl}-3-furansulfonamide]
IC50 [2]: ≤ 3.16 nM

Cc1nccc(-c2sc(C3CCOCC3)nc2-c2cccc(NS(=O)(=O)c3ccoc3)c2F)n1 [Example 314, N-{2-fluoro-3-[5-(2-methyl-4-pyrimidinyl)-2-(tetrahydro-2H-pyran-4-yl)-1,3-thiazol-4-yl]phenyl}-3-furansulfonamide]
IC50 [3]: 3.16 to 31.6 nM

O=S(=O)(Nc1cccc(-c2nc(C3CCOCC3)sc2-c2ccnc(NCCN3CCCC3)n2)c1F)c1ccoc1 [Example 306, N-{2-fluoro-3-[5-(2-{[2-(1-pyrrolidinyl)ethyl]amino}-4-pyrimidinyl)-2-(tetrahydro-2H-pyran-4-yl)-1,3-thiazol-4-yl]phenyl}-3-furansulfonamide]
IC50 [2]: ≤ 3.16 nM

CC(C)c1nc(-c2ccc(F)c(NS(=O)(=O)c3c(F)cccc3F)c2)c(-c2ccnc(NCCCCN(C)C)n2)s1 [Example 173]
IC50 [4]: 100 to 1000 nM

C[C@H](O)CNc1nccc(-c2sc(C(C)(C)C)nc2-c2cccc(NS(=O)(=O)c3c(F)cccc3F)c2F)n1 [Example 291, N-{3-[2-(1,1-dimethylethyl)-5-(2-{[(2S)-2-hydroxypropyl]amino}-4-pyrimidinyl)-1,3-thiazol-4-yl]-2-fluorophenyl}-2,6-difluorobenzenesulfonamide]
IC50 [2]: ≤ 3.16 nM

CC(C)(C)c1nc(-c2cccc(NS(=O)(=O)c3ccco3)c2F)c(-c2ccnc(N)n2)o1 [Example 298, N-{3-[5-(2-amino-4-pyrimidinyl)-2-(1,1-dimethylethyl)-1,3-oxazol-4-yl]-2-fluorophenyl}-2-furansulfonamide]
IC50 [2]: ≤ 3.16 nM

CC(C)c1nc(-c2cccc(NS(=O)(=O)c3c(F)cccc3F)c2F)c(-c2ccnc(NCCS(C)(=O)=O)n2)s1 [Example 11, 2,6-Difluoro-N-{2-fluoro-3-[2-(1-methylethyl)-5-(2-{[2-(methylsulfonyl)ethyl]amino}-4-pyrimidinyl)-1,3-thiazol-4-yl]phenyl}benzenesulfonamide]
IC50 [1]: < 100 nM | IC50 [2]: ≤ 3.16 nM

Nc1nccc(-c2sc(C3CCNCC3)nc2-c2cccc(NS(=O)(=O)c3ccoc3)c2F)n1 [Example 324, N-{3-[5-(2-amino-4-pyrimidinyl)-2-(4-piperidinyl)-1,3-thiazol-4-yl]-2-fluorophenyl}-3-furansulfonamide]
IC50 [2]: ≤ 3.16 nM

Nc1nccc(-c2sc(C3CCNCC3)nc2-c2cccc(NS(=O)(=O)c3c(F)cccc3F)c2F)n1 [Example 322, N-{3-[5-(2-amino-4-pyrimidinyl)-2-(4-piperidinyl)-1,3-thiazol-4-yl]-2-fluorophenyl}-2,6-difluorobenzenesulfonamide]
IC50 [2]: ≤ 3.16 nM

Cc1nccc(-c2sc(C(C)(C)CO)nc2-c2cccc(NS(=O)(=O)c3c(F)cccc3F)c2F)n1 [Example 316, 2,6-difluoro-N-{2-fluoro-3-[2-(2-hydroxy-1,1-dimethylethyl)-5-(2-methyl-4-pyrimidinyl)-1,3-thiazol-4-yl]phenyl}benzenesulfonamide]
IC50 [3]: 3.16 to 31.6 nM

CC(C)c1nc(-c2cccc(NS(=O)(=O)c3cccc(F)c3)c2)c(-c2ccnc(NC3CC3)n2)s1 [Example 89, N-{3-[5-[2-(Cyclopropylamino)-4-pyrimidinyl]-2-(1-methylethyl)-1,3-thiazol-4-yl]phenyl}-3-fluorobenzenesulfonamide]
IC50 [1]: < 100 nM | IC50 [2]: 31.6 to 1000 nM

COCCCNc1nccc(-c2sc(C(C)C)nc2-c2ccc(F)c(NS(=O)(=O)c3c(F)cccc3F)c2)n1 [Example 174]
IC50 [4]: 100 to 1000 nM

CC(=O)NCc1nccc(-c2sc(N3CCOCC3)nc2-c2cccc(NS(=O)(=O)c3cc(F)ccc3F)c2F)n1 [Example 276, N-({4-[4-(3-{[(2,5-difluorophenyl)sulfonyl]amino}-2-fluorophenyl)-2-(4-morpholinyl)-1,3-thiazol-5-yl]-2-pyrimidinyl}methyl)acetamide]
IC50 [3]: 3.16 to 31.6 nM

CC(C)(C)c1nc(-c2cccc(NS(=O)(=O)c3ccoc3)c2F)c(-c2ccnc(N)n2)o1 [Example 299, N-{3-[5-(2-amino-4-pyrimidinyl)-2-(1,1-dimethylethyl)-1,3-oxazol-4-yl]-2-fluorophenyl}-3-furansulfonamide]
IC50 [2]: ≤ 3.16 nM

CC(C)c1nc(-c2ccc(F)c(NS(=O)(=O)c3c(F)cccc3F)c2)c(-c2ccnc(NCCN3CCOCC3)n2)s1 [Example 171]
IC50 [4]: 100 to 1000 nM

CC(C)c1nc(-c2cccc(NS(=O)(=O)c3cccc(F)c3)c2)c(-c2ccnc(NCCCN(C)C)n2)s1 [Example 88, N-{3-[5-(2-{[3-(Dimethylamino)propyl]amino}-4-pyrimidinyl)-2-(1-methylethyl)-1,3-thiazol-4-yl]phenyl}-3-fluorobenzenesulfonamide]
IC50 [1]: < 100 nM | IC50 [3]: 3.16 to 31.6 nM

O=S(=O)(Nc1cccc(-c2nc(C3CCOCC3)sc2-c2ccnc(NCCO)n2)c1F)c1ccoc1 [Example 300, N-{2-fluoro-3-[5-{2-[(2-hydroxyethyl)amino]-4-pyrimidinyl}-2-(tetrahydro-2H-pyran-4-yl)-1,3-thiazol-4-yl]phenyl}-3-furansulfonamide]
IC50 [2]: ≤ 3.16 nM

Cc1nccc(-c2sc(C3CCOCC3)nc2-c2cccc(NS(=O)(=O)c3c(F)cccc3F)c2F)n1 [Example 315, 2,6-difluoro-N-{2-fluoro-3-[5-(2-methyl-4-pyrimidinyl)-2-(tetrahydro-2H-pyran-4-yl)-1,3-thiazol-4-yl]phenyl}benzenesulfonamide]
IC50 [3]: 3.16 to 31.6 nM

CC(C)(C)c1nc(-c2cccc(NS(=O)(=O)c3c(F)cccc3F)c2F)c(-c2ccnc(NCCC#N)n2)s1 [Example 292, N-{3-[5-{2-[(2-cyanoethyl)amino]-4-pyrimidinyl}-2-(1,1-dimethylethyl)-1,3-thiazol-4-yl]-2-fluorophenyl}-2,6-difluorobenzenesulfonamide]
IC50 [2]: ≤ 3.16 nM

CC(C)c1nc(-c2ccc(F)c(NS(=O)(=O)c3c(F)cccc3F)c2)c(-c2ccnc(NCCOCCO)n2)s1 [Example 172]
IC50 [4]: 100 to 1000 nM

Cn1ccc(S(=O)(=O)Nc2cccc(-c3nc(C(C)(C)C)sc3-c3ccnc(N)n3)c2F)n1 [Example 288, N-{3-[5-(2-amino-4-pyrimidinyl)-2-(1,1-dimethylethyl)-1,3-thiazol-4-yl]-2-fluorophenyl}-1-methyl-1H-pyrazole-3-sulfonamide hydrochloride]
IC50 [2]: 31.6 to 1000 nM

CC(C)(C)c1nc(-c2cccc(NS(=O)(=O)c3cc(F)ccc3F)c2F)c(-c2ccnc(N)n2)o1 [Example 297, N-{3-[5-(2-amino-4-pyrimidinyl)-2-(1,1-dimethylethyl)-1,3-oxazol-4-yl]-2-fluorophenyl}-2,5-difluorobenzenesulfonamide]
IC50 [2]: ≤ 3.16 nM

Nc1nccc(-c2scnc2-c2cccc(NS(=O)(=O)c3c(F)cccc3F)c2)n1 [Example 114, N-{3-[5-(2-Amino-4-pyrimidinyl)-1,3-thiazol-4-yl]phenyl}-2,6-difluorobenzenesulfonamide]
IC50 [1]: 100 to 1000 nM | IC50 [2]: 31.6 to 1000 nM

CC(C)(C)c1nc(-c2cccc(NS(=O)(=O)c3cc(F)ccc3F)c2)c(-c2ccnc(N)n2)s1 [Example 116, N-{3-[5-(2-Amino-4-pyrimidinyl)-2-(1,1-dimethylethyl)-1,3-thiazol-4-yl]phenyl}-2,5-difluorobenzenesulfonamide]
IC50 [1]: < 100 nM | IC50 [3]: 3.16 to 31.6 nM

C[C@@H](O)CNc1nccc(-c2sc(C(C)(C)C)nc2-c2cccc(NS(=O)(=O)c3c(F)cccc3F)c2F)n1 [Example 290, N-{3-[2-(1,1-dimethylethyl)-5-(2-{[(2R)-2-hydroxypropyl]amino}-4-pyrimidinyl)-1,3-thiazol-4-yl]-2-fluorophenyl}-2,6-difluorobenzenesulfonamide]
IC50 [2]: ≤ 3.16 nM

Nc1nccc(-c2sc(C3CCOCC3)nc2-c2cccc(NS(=O)(=O)c3ccccn3)c2F)n1 [Example 279, N-{3-[5-(2-amino-4-pyrimidinyl)-2-(tetrahydro-2H-pyran-4-yl)-1,3-thiazol-4-yl]-2-fluorophenyl}-2-pyridinesulfonamide]
IC50 [3]: 3.16 to 31.6 nM

CC(C)CNc1nccc(-c2sc(C3CCOCC3)nc2-c2cccc(NS(=O)(=O)c3ccoc3)c2F)n1 [Example 304, N-{2-fluoro-3-[5-{2-[(2-methylpropyl)amino]-4-pyrimidinyl}-2-(tetrahydro-2H-pyran-4-yl)-1,3-thiazol-4-yl]phenyl}-3-furansulfonamide]
IC50 [2]: ≤ 3.16 nM

CC(C)c1nc(-c2ccc(F)c(NS(=O)(=O)c3c(F)cccc3F)c2)c(-c2ccnc(NCCS(C)(=O)=O)n2)s1 [Example 8, 2,6-Difluoro-N-{2-fluoro-5-[2-(1-methylethyl)-5-(2-{[2-(methylsulfonyl)ethyl]amino}-4-pyrimidinyl)-1,3-thiazol-4-yl]phenyl}benzenesulfonamide]
IC50 [1]: < 100 nM | IC50 [3]: 3.16 to 31.6 nM
